Entries after “also recorded” stand apart in the source; their conditions may differ.
What was measured:
IMR-32 cells [1] = assay: cell growth/proliferation test, cell counting and vitality by tryphan blue exclusion; format: cell-based, human; conditions: 10 μM
Procedure: (§1) In order to show the effectiveness of the peptide nucleic acids selected by the Applicant, the latter has carried out experimental tests by selecting four neuroblastoma cell lines: GI-LI-N, IMR-32 where N-myc gene is amplified and overexpressed; and GI-CA-N, GI-ME-N where N-myc gene is not amplified and is not expressed.
(§2) In threefold tests using plates with 24 wells, 1.0×10^5 cells have been introduced into the first wells with 0.5 ml of RPMI1640 containing 10% of FBS and 2 mM of […].
(§3) Cells have been incubated for 24 hours so as to let them adhere to the base of the wells.
(§4) Then, in order to assess the optimal concentration for cell growth inhibition, peptide nucleic acid has been added to GI-LI-N cells in concentration of 10, 20, 40 and 60 μM for 5′-UTR antisense PNA, whereas for sense and antisense anti-gene PNAs in concentrations of 1, 2, 5, 10 and 20 μM on GI-LI-N and IMR-32 cells-
(§5) Then, in order to assess the effects of the treatments, cells have been collected and counted 24, 48 and 72 hours after treatment.
(§6) Cells counting and vitality has been determined using colorimetric exclusion method (tryphan blue dye).

HT29 cells = assay: cell growth/proliferation test in colon carcinoma cells; format: cell-based; conditions: 10 μM
Procedure: (§7) The treatment with 10 μM sense anti-gene PNA has also been carried out in HT29 cells (deriving from colon carcinoma) and in HeLa cells (deriving from cervical carcinoma) expressing N-myc gene.

HeLa cells = assay: cell growth/proliferation test in cervical carcinoma cells; format: cell-based; conditions: 10 μM
Procedure: as §7

N-MYC protein = assay: production of N-MYC protein by Western Blotting in IMR-32 cell line; format: cell-based, human; conditions: 10 μM
Procedure: In further tests on sense anti-gene PNA, the production of N-MYC protein was assessed by using Western Blotting in IMR-32 cell line after 3 hours of treatment with 10 μM sense anti-gene PNA. A reduction of 50% of protein level has been detected after 3 hours of treatment with sense anti-gene PNA.

IMR-32 cells [2] = assay: cytofluorimetric cell cycle analysis in IMR-32 cells; format: cell-based, human; conditions: 10 μM; for cells in G2/M / cells in Go/G1 / cells in S phase: IMR-32
Procedure: A cytofluorimetric analysis in IMR-32 cells 24 and 48 hours after the treatment with sense anti-gene PNA in a concentration of 10 μM, induced a cell accumulation in Go/G1 (from 39% to 53% after 24 hours; from 31% to 53% after 48 hours) and decrease in G2/M (from 17% to 6% after 24 hours; from 25% to 9% after 48 hours) and S phase (from 45 to 41% after 24 hours; from 44% to 39% after 48 hours).

GI-LI-N cells [3] = assay: cell growth/proliferation test, cell counting and vitality by tryphan blue exclusion; format: cell-based, human; conditions: for maximum inhibition effect on cell growth / inhibition effect in proliferation tests: GI-LI-N cells; for maximum inhibition effect on cell growth: 48 hours after treatment
Procedure: as §1, §2, §3, §4, §5, §6

GI-CA-N cells [4] = assay: as above; format: cell-based, human; conditions: same conditions
Procedure: as §1, §2, §3
In order to assess the specificity of sense and antisense anti-gene PNAs, GI-ME-N and GI-CA-N (in which N-myc gene is not amplified and is not […] for sense anti-gene PNA).
as §5, §6

N-MYC (protein) = assay: production of N-MYC protein by Western Blotting in GI-LI-N cell line; format: cell-based, human; conditions: for N-MYC protein level (Western Blotting): 20 μM, GI-LI-N
GI-LI-N cells [5] = assay: flow cytometric cell cycle analysis on GI-LI-N cells; format: cell-based, human
Description: Moreover, the number of cells in sub-G1 phase with a hypodiploic DNA content (lower number of chromosomes than diploid DNA, i.e. 2n) increases from 3 to 22%.

GI-LI-N cells [6] = assay: microscopic analysis of morphologic changes/differentiation of GI-LI-N cells; format: cell-based, human; conditions: 20 μM
Procedure: In order to assess the differentiation of GI-LI-N cells towards neuronal cells, said cell line has been treated with 20 μM antisense PNA, whereby morphologic changes have been detected by means of microscopic analysis.
Microscope assessment has been carried 36 and 48 hours after GI-LI-N cell growth in the presence or absence of 20 μM antisense PNA.

GI-CA-N cells [7] = assay: cell entry and intracellular localization by fluorescence microscopy of rhodamine-conjugated PNA; format: cell-based, human
Procedure: (§8) In order to assess the ability of antisense PNAs and of anti-gene PNAs to get into human neuroblastoma cells and to analyze the subsequent intracellular localization, the Applicant has used four cell lines GI-LI-N and IMR-32, GI-CA-N and GI-ME-N- and has treated them for 30 minutes to 24 hours with 20 μM of antisense or sense PNA conjugated with rhodamine in 5′. Anti-gene PNAs were further conjugated with NLS in 3′.

GI-LI-N cells [8] = assay: as above; format: cell-based, human
Procedure: as §8

GI-ME-N cells = assay: cell growth/proliferation test, cell counting and vitality by tryphan blue exclusion; format: cell-based, human; conditions: 10 μM; GI-ME-N cells (N-myc not amplified, not expressed); same conditions
Procedure: as §1, §2, §3
In order to assess the specificity of sense and antisense anti-gene PNAs, GI-ME-N and GI-CA-N (in which N-myc gene is not amplified and is not expressed) have been treated with sense and antisense anti-gene PNA in a concentration of […] (optimal concentration selected for sense anti-gene PNA).
as §5, §6

N-myc transcript = assay: production of N-myc transcript by PCR of cDNA from GI-LI-N cells; format: cell-based, human; conditions: 10 μM, 30 PCR cycles, easily detected in untreated cells
Procedure: The production of N-myc transcript was assessed before and after […] treatment with 10 μM sense anti-gene PNA by amplification in PCR of cDNA obtained from 250 ng of mRNA of GI-LI-N cells. The following primers have been used: sense SEQ ID NO: 5 (ExonE 2, by 2366); antisense SEQ ID NO: 6(Exon 3, by 5095) (Genbank M13241). PCR has been carried out with 30 reaction cycles.

[9] = same test conditions used for sense anti-gene PNA
[10] = 10 μM, cell line not restated (GI-LI-N)

mutated anti-gene PNA: mutated PNA containing the substitution of three bases (SEQ ID NO: 7), specificity control for sense anti-gene PNA (GTGCCGAGCATGGTCT; all peptide nucleic acid (PNA))
inhibition effect in cell vitality (IMR-32 cells [1]; [9]): No inhibition effect
inhibition effect in proliferation tests (HT29 cells): have not shown any inhibition effect
inhibition effect in proliferation tests (HeLa cells): have not shown any inhibition effect
inhibition effect in the amount of N-MYC protein (N-MYC protein; [9]): No inhibition effect
inhibition effect in cell cycle (IMR-32 cells [2]; [9]): No inhibition effect

antisense PNA: antisense peptide nucleic acid (bp 135-150, SEQ ID NO: 1) complementary to one sequence in 5′-UTR region of N-myc gene (antisense TCCACCCAGCGCGTCC; all peptide nucleic acid (PNA))
maximum inhibition effect on cell growth (GI-LI-N cells [3]; 20 μM): 70%
inhibition effect on cell growth (GI-CA-N cells [4]; 20 μM, GI-CA-N cells (N-myc not amplified)): do not show any inhibition effect
N-MYC protein level (Western Blotting) (N-MYC (protein); after 24 hours): evident reduction
N-MYC protein level (Western Blotting) (N-MYC (protein); after 72 hours): reduction decreases
cells in sub-G1 phase with hypodiploic DNA content (GI-LI-N cells [5]; 20 μM, GI-LI-N, 36 hours after treatment, from 3 untreated): 22%
cells in G2 (GI-LI-N cells [5]; 20 μM, GI-LI-N, 36 hours after treatment, from 13 untreated): 6%
cells in G0/G1 (GI-LI-N cells [5]; 20 μM, GI-LI-N, 36 hours after treatment, from 34% untreated): 57%
cells in S phase (GI-LI-N cells [5]; 20 μM, GI-LI-N, 36 hours after treatment, from 53% untreated): 37%
morphologic changes (microscope) (GI-LI-N cells [6]; after 36 hours): less uniform distribution than control cells
morphologic changes (microscope) (GI-LI-N cells [6]; after 48 hours): tend to form small cell aggregates
time after treatment at which intracytoplasmatic fluorescence can already be measured (GI-CA-N cells [7]; 20 μM PNA conjugated with rhodamine in 5′): ≤ 30 min
time to maximum fluorescence intensity (GI-CA-N cells [7]; 20 μM rhodamine-conjugated PNA, level then constant for 24 hours): 6 h
time after treatment at which intracytoplasmatic fluorescence can already be measured (GI-LI-N cells [8]; 20 μM PNA conjugated with rhodamine in 5′, GI-LI-N): ≤ 30 min
time to maximum fluorescence intensity (GI-LI-N cells [8]; 20 μM rhodamine-conjugated PNA, GI-LI-N, level then constant for 24 hours): 6 h
intracellular localization of fluorescence (GI-LI-N cells [8]; 20 μM rhodamine-conjugated PNA, cell lines of b80): High intracytoplasmatic values

antisense anti-gene PNA: antisense anti-gene PNA (SEQ ID NO: 4) complementary to a sequence of exon 2 N-myc gene, NLS-conjugated (antisense AGATCATGCCCGGCAT; all peptide nucleic acid (PNA); SV40 nuclear localization signal peptide conjugated at 3' end, further chemistry not fully specified)
inhibition effect in proliferation tests (GI-LI-N cells [3]; 10 μM): have not shown any inhibition effect; also recorded: do not show any inhibition effect
inhibition effect in proliferation tests (IMR-32 cells [1]; IMR-32 cells): have not shown any inhibition effect; also recorded: do not show any inhibition effect

sense anti-gene PNA: sense anti-gene PNA (SEQ ID NO: 3) complementary to a sequence of exon 2 N-myc gene, NLS-conjugated (ATGCCGGGCATGATCT; all peptide nucleic acid (PNA); SV40 nuclear localization signal peptide conjugated at 3' end, further chemistry not fully specified)
maximum inhibition effect on cell growth (GI-LI-N cells [3]; 10 μM): 90%
maximum inhibition effect on cell growth (IMR-32 cells [1]; IMR-32 cells, 48 hours after treatment): 80%
inhibition effect on cell growth (GI-CA-N cells [4]; 10 μM, GI-CA-N cells (N-myc not amplified, not expressed)): do not show any inhibition effect
inhibition effect on cell growth (GI-ME-N cells): do not show any inhibition effect
maximum inhibition effect on cell growth (HT29 cells; 48 hours after treatment): 70%
maximum inhibition effect on cell growth (HeLa cells; 24 hours after treatment): 70%
reduction of N-MYC protein level (Western Blotting) (N-MYC protein; IMR-32, after 3 hours of treatment): 50%
cells in G2/M (IMR-32 cells [2]; after 24 hours, from 17% untreated): 6%
cells in Go/G1 (IMR-32 cells [2]; after 24 hours, from 39% untreated): 53%
cells in S phase (IMR-32 cells [2]; after 24 hours, from 45 untreated): 41%
cells in G2/M (IMR-32 cells [2]; after 48 hours, from 25% untreated): 9%
cells in Go/G1 (IMR-32 cells [2]; after 48 hours, from 31% untreated): 53%
cells in S phase (IMR-32 cells [2]; after 48 hours, from 44% untreated): 39%
PCR product of N-myc transcript (N-myc transcript): cannot be detected

mutated antisense PNA: mutated PNA containing the substitution of three bases (SEQ ID NO: 2), specificity control for antisense PNA (CCCACTCAGCGCGCCC; all peptide nucleic acid (PNA))
inhibition effect in cell vitality (GI-LI-N cells [3]; [10]): no inhibition effect
inhibition effect in proliferation tests (GI-LI-N cells [3]; 20 μM): have not shown any inhibition effect
inhibition effect in the amount of N-MYC protein (N-MYC (protein); [10]): no inhibition effect
inhibition effect in cell cycle (GI-LI-N cells [5]; [10]): no inhibition effect

From patent publication US7947657B2, “Method for selective inhibition of human N-myc gene in N-myc expressing tumors through antisense and antigen peptido-nucleic acids (PNA)” (Universita Degli Studi Di Parma, priority 2003, dated 2011)
